Results published in patent US11806342B2, “Diiodohydroxyquinoline for the treatment of clostridium difficile infection” (Purdue Research Foundation, priority 2019, dated 2023).
Counter-ions that a name gives are not always drawn. Like-named read-outs stand apart in the source and are kept apart here.

Experiments:
[1] = system: C. difficile ATCC 43255; assay: Initial screening of antiparasitic drugs, broth microdilution MIC; assay type: cell-based, Clostridium difficile
Procedure: (§1) C. difficile strains were grown anaerobically on brain heart infusion supplemented (BHIS) agar plates at 37° C. for 48 hours. Afterwards, a bacterial solution equivalent to 0.5 McFarland standard was prepared and diluted in (BHIS) broth to achieve a bacterial concentration of about 5×10^5 CFU/mL. Drugs were added and serially diluted along the plates. Plates were then, incubated anaerobically at 37° C. for 48 hours. MICs reported in Table (1) are the minimum concentrations of the drugs that could completely suppress the visual growth of bacteria.

[2] = system: C. difficile ATCC BAA-1870; assay: as above; assay type: cell-based, Clostridium difficile
Procedure: as §1

[3] = Clostridioides difficile, ATCC43255, initial screening, C. difficile ATCC 43255, read-out: MIC
[4] = Clostridioides difficile, initial screening, C. difficile ATCC BAA 1870, read-out: MIC
[5] = Clostridioides difficile, ATCC43255

MIC [1, 3]	MIC [2, 4]	Compound	other results
> 128 µg/mL	> 128 µg/mL	CN1CCCN=C1/C=C/c1cccs1 [Pyrantel Pamoate, pyrantel pamoate]	
> 128 µg/mL	> 128 µg/mL	NC[C@@H]1O[C@H](O[C@H]2[C@@H](O)[C@H](O[C@@H]3[C@@H](O)[C@H](N)C[C@H](N)[C@H]3O[C@H]3O[C@H](CO)[C@@H](O)[C@H](O)[C@H]3N)O[C@@H]2CO)[C@H](N)[C@@H](O)[C@@H]1O [Paromomycin, paromomycin sulfate]	
> 128 µg/mL	> 128 µg/mL	O=C(C1CCCCC1)N1CC(=O)N2CCc3ccccc3C2C1 (stereo not drawn) [Praziquantel, praziquantel]	
> 128 µg/mL	> 128 µg/mL	CCc1nc(N)nc(N)c1-c1ccc(Cl)cc1 [Pyrimethamine, pyrimethamine]	

Further lines, the molecule ahead of its results:

Compound	MIC [1, 3]	MIC [2, 4]	other results
c1ccc2[nH]c(-c3cscn3)nc2c1 [Thiabendazole, thiabendazole]	> 128 µg/mL	> 128 µg/mL	
CCCSc1ccc2nc(NC(=O)OC)[nH]c2c1 [Albendazole, albendazole]			MIC [1, 5]: > 128 µg/mL; MIC ([2]; Clostridioides difficile): > 128 µg/mL
CC(C)OC(=O)Nc1ccc2nc(-c3cscn3)[nH]c2c1 [Cambendazole, cambendazole]			MIC ([1]; initial screening, C. difficile ATCC 43255): >128 µg/mL; MIC ([2]; initial screening, C. difficile ATCC BAA 1870): >128 µg/mL
CCC[S+]([O-])c1ccc2[nH]c(NC(=O)OC)nc2c1 (stereo not drawn) [Ricobendazole, ricobendazole]			MIC [1, 5]: > 128 µg/mL; MIC ([2]; Clostridioides difficile): > 128 µg/mL
COC(=O)Nc1nc2ccc(C(=O)c3ccccc3)cc2[nH]1 [Mebendazole, mebendazole]	> 128 µg/mL	> 128 µg/mL	
